Data reported in paper PMC10600247, “Impact of C- and N-terminal protection on the stability, metal chelation and antimicrobial properties of calcitermin” (Scientific Reports, 2023).
Residues, ends and D or L forms follow the SMILES beside them.

Assays:
C. albicans (ATCC 10231) = assay: In vitro antifungal CFU assay; type: cell-based, Candida albicans; conditions: pH 5.4; for mean CFU number ± S.D.: per 0.1 mL
Summary of the method: (§1)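 Peptides (final 0.128, 0.064, 0.032 mg/mL), alone or with ZnCl2 or CuCl2 at M:L 0.9:1, were incubated with 10^3 CFU/well in PBS pH 5.4 plus 1.5% TSB at 37 °C with slow rocking for 3 and 24 h. Aliquots were plated on TSA and CFU counted after 24 h; triplicate.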

in vitro = conditions: human, pH 7.4
Experimental: Each peptide (C = 1·10^–4 M) and metal complex (metal:ligand ratio 1:1) was incubated in a sample containing 1 ml of human plasma (obtained as a pool of 40 individuals from the University Hospital of Ferrara) and 1 ml of ammonium acetate buffer (pH 7.4) at 37 °C. L-phenylalaninol is added as internal standard. At regular time intervals, 200 μl aliquots were taken and enzymatic reaction was blocked by adding 300 μl of HClO4 0.5 M. The sample was then centrifugated for 6 min at 14,000 × g. The supernatant was then filtered and analysed by HPLC. The analytical column was an Agilent Poroshell 120 SB-C18 (4.6 × 100 mm, 2.7 μm, pore size 120 Å). Flow rate = 0.5 ml/min, mobile phase H2O + 0.1% v/v TFA, linear gradient from 0 to 60% of acetonitrile + 0.1% v/v TFA over 30 min for the elution of peptides, temperature 25 °C, detection wavelength 210 nm. […] Informed consent was obtained from all subjects and/or their legal guardian(s) prior to the donation of blood samples. All experimental protocols were approved by the National Research and Research Transversal Processes boards at University of Ferrara. All methods were carried out in accordance with relevant guidelines and regulations.

S. aureus (ATCC 25293) = assay: In vitro anti-S. aureus CFU assay; type: cell-based, Staphylococcus aureus; conditions: 3 h, pH 5.4; for mean CFU number ± S.D.: per 0.1 mL
Summary of the method: as §1

[1] = peptide 0.032 mg/mL + CuCl2 (0.9:1), 3 h
[2] = peptide 0.032 mg/mL + CuCl2 (0.9:1), 24 h
[3] = peptide 0.032 mg/mL + ZnCl2 (0.9:1), 3 h
[4] = peptide 0.032 mg/mL + ZnCl2 (0.9:1), 24 h
[5] = peptide 0.064 mg/mL + CuCl2 (0.9:1), 3 h
[6] = peptide 0.064 mg/mL + CuCl2 (0.9:1), 24 h
[7] = peptide 0.064 mg/mL + ZnCl2 (0.9:1), 3 h
[8] = peptide 0.128 mg/mL + CuCl2 (0.9:1), 3 h
[9] = peptide 0.128 mg/mL + CuCl2 (0.9:1), 24 h
[10] = peptide alone 0.032 mg/mL, 24 h
[11] = peptide alone 0.064 mg/mL, 24 h
[12] = peptide alone 0.128 mg/mL, 24 h
[13] = peptide 0.032 mg/mL + CuCl2 (0.9:1)
[14] = peptide 0.032 mg/mL + ZnCl2 (0.9:1)
[15] = peptide 0.064 mg/mL + CuCl2 (0.9:1)
[16] = peptide 0.064 mg/mL + ZnCl2 (0.9:1)

SMILES: CC[C@H](C)[C@H](NC(=O)[C@H](C)NC(=O)[C@@H](N)C(C)C)C(=O)N[C@@H](C)C(=O)N[C@@H](CC(C)C)C(=O)N[C@@H](CCCCN)C(=O)N[C@@H](C)C(=O)N[C@@H](C)C(=O)N[C@@H](Cc1c[nH]cn1)C(=O)N[C@@H](Cc1ccc(O)cc1)C(=O)N[C@@H](Cc1c[nH]cn1)C(=O)N[C@H](C(=O)N[C@@H](Cc1c[nH]cn1)C(=O)N[C@@H](CCCCN)C(=O)N[C@@H](CCC(=O)O)C(N)=O)[C@@H](C)O [L3, VAIALKAAHYHTHKE-NH2] (H-VAIALKAAHYHTHKE-NH2)
- CFU decrease/increase with respect to untreated controls (C. albicans (ATCC 10231); [1]): +23%
- mean CFU number ± S.D. (C. albicans (ATCC 10231); [1]): 187 ± 20 CFU
- CFU decrease/increase with respect to untreated controls (C. albicans (ATCC 10231); [2]): -19%
- mean CFU number ± S.D. (C. albicans (ATCC 10231); [2]): 2,042 ± 137 CFU
- CFU decrease/increase with respect to untreated controls (C. albicans (ATCC 10231); [3]): +6%
- mean CFU number ± S.D. (C. albicans (ATCC 10231); [3]): 160 ± 25 CFU
- CFU decrease/increase with respect to untreated controls (C. albicans (ATCC 10231); [4]): +2%
- mean CFU number ± S.D. (C. albicans (ATCC 10231); [4]): 2,557 ± 251 CFU
- CFU decrease/increase with respect to untreated controls (C. albicans (ATCC 10231); [5]): +59%
- mean CFU number ± S.D. (C. albicans (ATCC 10231); [5]): 241 ± 23 CFU
- CFU decrease/increase with respect to untreated controls (C. albicans (ATCC 10231); [6]): -8%
- mean CFU number ± S.D. (C. albicans (ATCC 10231); [6]): 2,315 ± 546 CFU
- CFU decrease/increase with respect to untreated controls (C. albicans (ATCC 10231); [7]): -2%
- mean CFU number ± S.D. (C. albicans (ATCC 10231); [7]): 148 ± 22 CFU
- mean CFU number ± S.D. (C. albicans (ATCC 10231); peptide 0.064 mg/mL + ZnCl2 (0.9:1), 24 h): 1,596 ± 145 CFU
- CFU decrease/increase with respect to untreated controls (C. albicans (ATCC 10231); [8]): +53%
- mean CFU number ± S.D. (C. albicans (ATCC 10231); [8]): 230 ± 3 CFU
- CFU decrease/increase with respect to untreated controls (C. albicans (ATCC 10231); [9]): -33%
- mean CFU number ± S.D. (C. albicans (ATCC 10231); [9]): 1,687 ± 111 CFU
- mean CFU number ± S.D. (C. albicans (ATCC 10231); peptide 0.128 mg/mL + ZnCl2 (0.9:1), 3 h): 71 ± 17 CFU
- mean CFU number ± S.D. (C. albicans (ATCC 10231); peptide 0.128 mg/mL + ZnCl2 (0.9:1), 24 h): 605 ± 97 CFU
- CFU decrease/increase with respect to untreated controls (C. albicans (ATCC 10231); peptide alone 0.032 mg/mL, 3 h): +25%
- mean CFU number ± S.D. (C. albicans (ATCC 10231); peptide alone 0.032 mg/mL, 3 h): 189 ± 23 CFU
- CFU decrease/increase with respect to untreated controls (C. albicans (ATCC 10231); [10]): -10%
- mean CFU number ± S.D. (C. albicans (ATCC 10231); [10]): 2,263 ± 251 CFU
- CFU decrease/increase with respect to untreated controls (C. albicans (ATCC 10231); peptide alone 0.064 mg/mL, 3 h): +20%
- mean CFU number ± S.D. (C. albicans (ATCC 10231); peptide alone 0.064 mg/mL, 3 h): 182 ± 27 CFU
- CFU decrease/increase with respect to untreated controls (C. albicans (ATCC 10231); [11]): -12%
- mean CFU number ± S.D. (C. albicans (ATCC 10231); [11]): 2,204 ± 170 CFU
- CFU decrease/increase with respect to untreated controls (C. albicans (ATCC 10231); peptide alone 0.128 mg/mL, 3 h): -5%
- mean CFU number ± S.D. (C. albicans (ATCC 10231); peptide alone 0.128 mg/mL, 3 h): 144 ± 11 CFU
- CFU decrease/increase with respect to untreated controls (C. albicans (ATCC 10231); [12]): -14%
- mean CFU number ± S.D. (C. albicans (ATCC 10231); [12]): 2,164 ± 101 CFU
- half-life (in vitro): ~20 min
- CFU decrease/increase with respect to untreated controls (S. aureus (ATCC 25293); [13]): +6%
- mean CFU number ± S.D. (S. aureus (ATCC 25293); [13]): 187 ± 13 CFU
- CFU decrease/increase with respect to untreated controls (S. aureus (ATCC 25293); [14]): -6%
- mean CFU number ± S.D. (S. aureus (ATCC 25293); [14]): 167 ± 22 CFU
- CFU decrease/increase with respect to untreated controls (S. aureus (ATCC 25293); [15]): -2%
- mean CFU number ± S.D. (S. aureus (ATCC 25293); [15]): 173 ± 69 CFU
- CFU decrease/increase with respect to untreated controls (S. aureus (ATCC 25293); [16]): -50%
- mean CFU number ± S.D. (S. aureus (ATCC 25293); [16]): 88 ± 18 CFU
- mean CFU number ± S.D. (S. aureus (ATCC 25293); peptide 0.128 mg/mL + CuCl2 (0.9:1)): 94 ± 2 CFU
- mean CFU number ± S.D. (S. aureus (ATCC 25293); peptide 0.128 mg/mL + ZnCl2 (0.9:1)): 48 ± 8 CFU
- CFU decrease/increase with respect to untreated controls (S. aureus (ATCC 25293); peptide alone 0.032 mg/mL): -28%
- mean CFU number ± S.D. (S. aureus (ATCC 25293); peptide alone 0.032 mg/mL): 127 ± 64 CFU
- mean CFU number ± S.D. (S. aureus (ATCC 25293); peptide alone 0.064 mg/mL): 101 ± 30 CFU
- mean CFU number ± S.D. (S. aureus (ATCC 25293); peptide alone 0.128 mg/mL): 91 ± 12 CFU
